32 compounds from patent US7135466B2 (Kirin Beer Kabushiki Kaisha, priority 1999, dated 2006) can be followed below.

Test [1] addresses T1, PDGF-Ra (Homo sapiens, UniProt P16234).
T1 construct: host or cells: G-292 human osteosarcoma cells
The test is described as follows: Inhibitory activity against PDGF-Ra phosphorylation by PDGF-AA stimulation using G292. The class given is cell-based. The note with it: for inhibition at 0.1 µM: G292, figure in parentheses in >100( ), at 100 nM, read-out: PDGF (E) inhibition (%) at 100 nM; for IC50: Pharmacological Test Example 1, > means inhibition at indicated concentration not more than 50%, < and << not less than 50%, read-out: PDGF (E) IC50. The gist of the method: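 Phosphorylated PDGF-Ra was measured colorimetrically (450 nm) after tyrosine-phosphorylated proteins from G-292 lysates were bound to PY-20-coated wells and detected with anti-PDGF-Ra antibody. Compound preincubation lasted 1 hr, followed by 50 ng/ml PDGF-AA for 5 min.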

Test [2] deals with T2, c-kit (Homo sapiens, UniProt P10721).
T2 construct: MO7e (human megakaryocytic leukemia cell line) which had been arrested for 20 hr; endogenous in cells; host or cells: MO7e human megakaryocytic leukemia cell line
T2 sequence (P10721 26-976): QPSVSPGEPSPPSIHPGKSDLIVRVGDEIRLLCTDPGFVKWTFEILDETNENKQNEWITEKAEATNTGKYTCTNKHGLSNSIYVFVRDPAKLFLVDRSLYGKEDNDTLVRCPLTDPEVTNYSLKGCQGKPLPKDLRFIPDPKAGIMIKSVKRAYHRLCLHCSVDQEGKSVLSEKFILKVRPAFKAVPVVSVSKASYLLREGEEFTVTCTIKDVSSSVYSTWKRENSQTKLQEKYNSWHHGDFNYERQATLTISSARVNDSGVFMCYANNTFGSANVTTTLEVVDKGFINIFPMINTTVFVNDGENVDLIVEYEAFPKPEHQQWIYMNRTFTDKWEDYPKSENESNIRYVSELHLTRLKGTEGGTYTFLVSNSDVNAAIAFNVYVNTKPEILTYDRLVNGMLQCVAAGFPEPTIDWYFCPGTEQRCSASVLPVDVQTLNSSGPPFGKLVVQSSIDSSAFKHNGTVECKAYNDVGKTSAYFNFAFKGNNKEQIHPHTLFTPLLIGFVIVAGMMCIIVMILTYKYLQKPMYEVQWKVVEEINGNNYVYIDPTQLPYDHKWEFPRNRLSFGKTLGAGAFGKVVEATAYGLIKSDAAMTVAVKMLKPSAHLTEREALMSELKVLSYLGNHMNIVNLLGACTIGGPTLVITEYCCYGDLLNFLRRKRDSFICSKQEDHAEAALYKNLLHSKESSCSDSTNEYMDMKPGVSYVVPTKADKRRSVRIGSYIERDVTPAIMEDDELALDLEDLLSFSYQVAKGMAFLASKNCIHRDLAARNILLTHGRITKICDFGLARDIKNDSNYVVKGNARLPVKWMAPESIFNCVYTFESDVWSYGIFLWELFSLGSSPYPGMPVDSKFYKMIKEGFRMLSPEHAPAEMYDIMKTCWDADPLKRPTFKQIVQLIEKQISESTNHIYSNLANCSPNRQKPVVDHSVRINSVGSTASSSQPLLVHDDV
The test is described as follows: Inhibitory activity against c-kit autophosphorylation (MO7e cells, h-SCF). It is filed as cell-based. The note with it: for IC50: MO7e cells, h-SCF 50 ng/ml, read-out: c-kit IC50; for inhibition at 1 µM: Mo7e, figure in parentheses in −( ), at 1000 nM. The gist of the method:
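MO7e cells, arrested for 20 hr, were pretreated with test compound in DMSO for 1 hr and then stimulated with 50 ng/ml h-SCF for 5 min before lysis. Lysates were captured on immobilized anti-phosphotyrosine PY-20, probed with anti-c-kit antibody and HRP anti-rabbit IgG, and read colorimetrically at 450 nm.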

The structures appear in SMILES notation. Some results are limits rather than exact numbers.

T1 sequence (P16234 24-1089): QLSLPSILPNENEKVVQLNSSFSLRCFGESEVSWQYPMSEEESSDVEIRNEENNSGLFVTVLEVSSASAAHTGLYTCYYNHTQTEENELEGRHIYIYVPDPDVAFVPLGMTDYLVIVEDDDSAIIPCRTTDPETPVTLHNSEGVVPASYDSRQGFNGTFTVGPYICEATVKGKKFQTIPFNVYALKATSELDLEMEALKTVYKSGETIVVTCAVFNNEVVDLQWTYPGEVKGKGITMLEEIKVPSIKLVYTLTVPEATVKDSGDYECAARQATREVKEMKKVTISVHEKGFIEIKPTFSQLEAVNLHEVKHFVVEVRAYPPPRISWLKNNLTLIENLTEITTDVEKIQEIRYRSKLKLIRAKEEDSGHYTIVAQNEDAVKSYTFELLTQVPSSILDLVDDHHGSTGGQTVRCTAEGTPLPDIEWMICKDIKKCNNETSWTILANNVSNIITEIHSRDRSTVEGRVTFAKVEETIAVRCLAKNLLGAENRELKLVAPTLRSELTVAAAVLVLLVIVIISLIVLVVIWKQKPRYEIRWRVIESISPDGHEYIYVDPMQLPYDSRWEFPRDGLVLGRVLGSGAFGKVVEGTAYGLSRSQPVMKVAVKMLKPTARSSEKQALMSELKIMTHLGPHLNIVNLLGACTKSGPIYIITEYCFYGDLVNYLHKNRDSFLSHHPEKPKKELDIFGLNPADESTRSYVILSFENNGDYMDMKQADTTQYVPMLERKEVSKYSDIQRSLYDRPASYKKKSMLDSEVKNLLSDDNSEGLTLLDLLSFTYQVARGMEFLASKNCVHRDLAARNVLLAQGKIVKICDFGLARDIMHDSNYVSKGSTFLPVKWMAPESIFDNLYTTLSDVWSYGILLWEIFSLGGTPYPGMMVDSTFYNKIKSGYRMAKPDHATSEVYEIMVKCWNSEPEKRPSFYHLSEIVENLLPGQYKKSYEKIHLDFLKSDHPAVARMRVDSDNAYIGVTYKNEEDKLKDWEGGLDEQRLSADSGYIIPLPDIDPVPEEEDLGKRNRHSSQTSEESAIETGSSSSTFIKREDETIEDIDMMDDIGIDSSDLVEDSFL

Regarding `COc1cc2nccc(Oc3cc(C)c(NC(=O)Oc4ccc(-c5ccccc5)cc4)cc3C)c2cc1OC` [Example 295, 4-Phenylphenyl N-{4-[(6,7-dimethoxy-4-quinolyl)oxy]-2,5-dimethylphenyl}carbamate], in test [1], the inhibition at 0.1 µM turned out to be 45% and the IC50 is above 100 nM. In addition, in test [2], the IC50 was 178 nM.

Consider `COc1cc2nccc(Oc3ccc(NC(=O)Oc4ccc(-c5ccccc5)cc4)c(C)c3C)c2cc1OC` [Example 296, 4-Phenylphenyl N-{4-[(6,7-dimethoxy-4-quinolyl)oxy]-2,3-dimethylphenyl}carbamate], for which the figures for the IC50 in test [1] and in test [2] were 61 nM and 109 nM, respectively.

Turning to `COc1cc2nccc(Oc3ccc(NC(=O)OCCc4ccccc4)cc3)c2cc1OC` [Example 297, Phenethyl N-{4-[(6,7-dimethoxy-4-quinolyl)oxy]phenyl}carbamate], the IC50 in test [1] is below 10 nM; in test [2], 41 nM.

In the case of `COc1cc2nccc(Oc3cc(C)c(NC(=O)OCCc4ccccc4)cc3C)c2cc1OC` [Example 298, Phenethyl N-{4-[(6,7-dimethoxy-4-quinolyl)oxy]-2,5-dimethylphenyl}carbamate], the figures for the IC50 in test [1] and in test [2] were below 10 nM and 119 nM, respectively.

Turning to `COc1cc2nccc(Oc3ccc(NC(=O)OCCc4ccccc4)c(C)c3C)c2cc1OC` [Example 299, Phenethyl N-{4-[(6,7-dimethoxy-4-quinolyl)oxy]-2,3-dimethylphenyl}carbamate], the IC50 in test [1] is below 10 nM; in test [2] it was 53 nM.

Regarding `COc1cc2nccc(Oc3ccc(NC(=O)Oc4ccccc4C(C)(C)C)cc3)c2cc1OC` [Example 300], the half-maximal inhibitory concentration (IC50) in test [1] was below 10 nM. Further, the inhibition at 1 µM in test [2] is 43%.

`COc1cc2nccc(Oc3cc(C)c(NC(=O)Oc4ccccc4C(C)(C)C)cc3C)c2cc1OC` [Example 301, 2-(Tert-butyl)phenyl N-{4-[(6,7-dimethoxy-4-quinolyl)oxy]-2,5-dimethylphenyl}carbamate]: the half-inhibitory concentration (IC50) in test [1] was found to be 43 nM. Besides, in test [2], the inhibition at 1 µM was 39%.

For the compound `COc1cc2nccc(Oc3ccc(NC(=O)Oc4ccccc4C(C)(C)C)c(C)c3C)c2cc1OC` [Example 302, 2-(Tert-butyl)phenyl N-{4-[(6,7-dimethoxy-4-quinolyl)oxy]-2,3-dimethylphenyl}carbamate], the IC50 in test [1] worked out at 12 nM; in test [2] it was 202 nM.

Consider `COc1cc2nccc(Oc3ccc(NC(=O)OCCN4CCCCC4)cc3)c2cc1OC` [Example 303, 2-Piperidinoethyl N-{4-[(6,7-dimethoxy-4-quinolyl)oxy]phenyl}carbamate], for which the concentration for half-maximal inhibition (IC50) in test [1] stood at 11 nM; in test [2], 188 nM.

Turning to `COc1cc2nccc(Oc3cc(C)c(NC(=O)OCCN4CCCCC4)cc3C)c2cc1OC` [Example 304, 2-Piperidinoethyl N-{4-[(6,7-dimethoxy-4-quinolyl)oxy]-2,5-dimethylphenyl}carbamate], the IC50 in test [1] is 63 nM; in test [2] it was 401 nM.

`COc1cc2nccc(Oc3ccc(NC(=O)OCCN4CCCCC4)c(C)c3C)c2cc1OC` [Example 305, 2-Piperidinoethyl N-{4-[(6,7-dimethoxy-4-quinolyl)oxy]-2,3-dimethylphenyl}carbamate]: the half-inhibitory concentration (IC50) worked out at 11 nM in test [1] and 221 nM in test [2].

As for `COc1cc2nccc(Oc3ccc(NC(=O)OCCN4CCOCC4)cc3)c2cc1OC` [Example 306, 2-Morpholinoethyl N-{4-[(6,7-dimethoxy-4-quinolyl)oxy]phenyl}carbamate], the IC50 in test [1] is 11 nM; in test [2] it was 72 nM.

With `COc1cc2nccc(Oc3cc(C)c(NC(=O)OCCN4CCOCC4)cc3C)c2cc1OC` [Example 307, 2-Morpholinoethyl N-{4-[(6,7-dimethoxy-4-quinolyl)oxy]-2,5-dimethylphenyl}carbamate], in test [1], the inhibition at 0.1 µM was determined as 49% and the IC50 is above 100 nM. The concentration for half-maximal inhibition (IC50) in test [2] came out at 165 nM.

On to `COc1cc2nccc(Oc3ccc(NC(=O)OCCN4CCOCC4)c(C)c3C)c2cc1OC` [Example 308, 2-Morpholinoethyl N-{4-[(6,7-dimethoxy-4-quinolyl)oxy]-2,3-dimethylphenyl}carbamate], for which the IC50 in test [1] turned out to be 20 nM; in test [2], 101 nM.

For `COc1cc2nccc(Oc3ccc(NC(=O)OCCCCCCN(C)C)cc3)c2cc1OC` [Example 309, 6-(Dimethylamino)hexyl N-{4-[(6,7-dimethoxy-4-quinolyl)oxy]phenyl}carbamate], the 50% inhibitory concentration (IC50) turned out to be 10 nM in test [1] and 285 nM in test [2].

Take `COc1cc2nccc(Oc3cc(C)c(NC(=O)OCCCCCCN(C)C)cc3C)c2cc1OC` [Example 310, 6-(Dimethylamino)hexyl N-{4-[(6,7-dimethoxy-4-quinolyl)oxy]-2,5-dimethylphenyl}carbamate]: the results for the concentration for half-maximal inhibition (IC50) in test [1] and in test [2] were 67 nM and 607 nM, respectively.

Consider `COc1cc2nccc(Oc3ccc(NC(=O)OCCCCCCN(C)C)c(C)c3C)c2cc1OC` [Example 311, 6-(Dimethylamino)hexyl N-{4-[(6,7-dimethoxy-4-quinolyl)oxy]-2,3-dimethylphenyl}carbamate], for which the half-inhibitory concentration (IC50) in test [1] is below 10 nM; in test [2], 329 nM.

As to `COc1cc2ncnc(Oc3ccc(NC(=O)OC4CCCCC4)cc3)c2cc1OC` [Example 312, Cyclohexyl N-{4-[(6,7-dimethoxy-4-quinazolinyl)oxy]phenyl}carbamate], the figures for the IC50 in test [1] and in test [2] were below 10 nM and 29 nM, respectively.

For `COc1cc2ncnc(Oc3ccc(NC(=O)OC4CCCCC4)c(Cl)c3)c2cc1OC` [Example 313], the values for the IC50 in test [1] and in test [2] were below 10 nM and 330 nM, respectively.

Consider `CCCOC(=O)Nc1ccc(Oc2ncnc3cc(OC)c(OC)cc23)cc1` [Example 314, Propyl N-{4-[(6,7-dimethoxy-4-quinazolinyl)oxy]phenyl}carbamate], for which the 50% inhibitory concentration (IC50) in test [1] was found to be 44 nM; in test [2] it was 32 nM.

`COc1ccccc1COC(=O)Nc1ccc(Oc2ncnc3cc(OC)c(OC)cc23)cc1` [Example 315, 2-Methoxybenzyl N-{4-[(6,7-dimethoxy-4-quinazolinyl)oxy]phenyl}carbamate]: the IC50 is below 10 nM in test [1] and 82 nM in test [2].

Turning to `COc1ccccc1COC(=O)Nc1ccc(Oc2ncnc3cc(OC)c(OC)cc23)cc1Cl` [Example 316, 2-Methoxybenzyl N-{2-chloro-4-[(6,7-dimethoxy-4-quinazolinyl)oxy]phenyl}carbamate], the concentration for half-maximal inhibition (IC50) in test [1] amounted to 10 nM. Besides, the inhibition at 1 µM in test [2] came out at 40%.

`COc1cc2ncnc(Oc3ccc(NC(=O)OCc4ccccc4Cl)cc3)c2cc1OC` [Example 317, 2-Chlorobenzyl N-{4-[(6,7-dimethoxy-4-quinazolinyl)oxy]phenyl}carbamate]: the 50% inhibitory concentration (IC50) in test [1] was below 10 nM; in test [2] it was 136 nM.

As for `COc1cc2ncnc(Oc3ccc(NC(=O)OCc4ccccc4Cl)c(Cl)c3)c2cc1OC` [Example 318, 2-Chlorobenzyl N-{2-chloro-4-[(6,7-dimethoxy-4-quinazolinyl)oxy]phenyl}carbamate], the values for the IC50 in test [1] and in test [2] were 10 nM and 418 nM, respectively.

For the compound `COc1cc2ncnc(Oc3ccc(NC(=O)OCc4ccccc4C)cc3)c2cc1OC` [Example 319, 2-Methylbenzyl N-{4-[(6,7-dimethoxy-4-quinazolinyl)oxy]phenyl}carbamate], the IC50 was below 10 nM in test [1] and 98 nM in test [2].

Take `COc1cc2ncnc(Oc3ccc(NC(=O)OCc4ccccc4C)c(Cl)c3)c2cc1OC` [Example 320, 2-Methylbenzyl N-{2-chloro-4-[(6,7-dimethoxy-4-quinazolinyl)oxy]phenyl}carbamate]: the 50% inhibitory concentration (IC50) in test [1] was below 10 nM; in test [2], 596 nM.

On to `CCCCOC(=O)Nc1ccc(Oc2ccnc3cc(OC)c(OC)cc23)cc1` [Example 321, Butyl N-{4-[(6,7-dimethoxy-4-quinolyl)oxy]phenyl}carbamate], for which the half-maximal inhibitory concentration (IC50) was below 10 nM in test [1] and 37 nM in test [2].

`CCCCOC(=O)Nc1cc(C)c(Oc2ccnc3cc(OC)c(OC)cc23)cc1C` [Example 322, Butyl N-{4-[(6,7-dimethoxy-4-quinolyl)oxy]-2,5-dimethylphenyl}carbamate]: the figures for the IC50 in test [1] and in test [2] were below 10 nM and 60 nM, respectively.

`CCCCOC(=O)Nc1ccc(Oc2ccnc3cc(OC)c(OC)cc23)c(C)c1C` [Example 323, Butyl N-{4-[(6,7-dimethoxy-4-quinolyl)oxy]-2,3-dimethylphenyl}carbamate]: the half-inhibitory concentration (IC50) is below 10 nM in test [1] and below 30 nM in test [2].

Consider `COc1cc2nccc(Oc3ccc(NC(=O)OC(C)C)cc3)c2cc1OC` [Example 324, Isopropyl N-{4-[(6,7-dimethoxy-4-quinolyl)oxy]phenyl}carbamate], for which the IC50 was determined as 12 nM in test [1] and 64 nM in test [2].

In the case of `COc1cc2nccc(Oc3ccc(NC(=O)OC(C)C)c(C)c3C)c2cc1OC` [Example 325, Isopropyl N-{4-[(6,7-dimethoxy-4-quinolyl)oxy]-2,3-dimethylphenyl}carbamate], the IC50 in test [1] was below 10 nM; in test [2], 46 nM.

With `CCCCCCCCCCCCCCCCCCOC(=O)Nc1ccc(Oc2ccnc3cc(OC)c(OC)cc23)cc1` [Example 326, Octadecyl N-{4-[(6,7-dimethoxy-4-quinolyl)oxy]phenyl}carbamate], in test [1], the inhibition at 0.1 µM worked out at 31% and the IC50 was above 100 nM. In addition, in test [2], the inhibition at 1 µM is 18%.

As a reminder, the inhibition is the relative decrease from the control value, in per cent. For orientation: IC50 means the concentration at which inhibition is half-maximal.
